Tested on: Lin-CD24+CD49f^hi cells
Experiment: FACS quantification of stem cell-enriched Lin-CD24+CD49f hi mammary population (MaSC)
Assay type: in vivo, mouse
Settings: MPA for 3 days
Procedure: a,b, Induction of RANKL expression by the progesterone-derivative MPA. Nulliparous wild type females were s.c. implanted with slow-release MPA pellets or treated with surgery sham. a, RANKL mRNA was determined in purified mammary epithelial cells by qRT-PCR three days after implantation. Data are shown as fold change compared to sham treatment (+/−sem) (n=3). b, In situ […] immunostaining of progesterone receptor (PR, red) and RANKL (green) in mammary epithelial cells after 3d MPA treatment. c, Induction of soluble RANKL protein assayed on isolated mammary gland epithelial cells from control, but not in prolactin receptor mutant (PRL-R KO) females on day 3 after s.c. MPA implantation. […] Proliferation was determined by in situ Ki67 immunostaining. e,f, Marked increase of the stem cell-enriched CD24^+CD49^high population (MaSC) in MPA-treated mammary glands in control but not in RANK^Δmam mammary glands. e, Representative FACS profiles showing CD24 and CD49 expression of lineage negative (CD31^− (endothelial cells) CD45^− (hematopoietic cells) […] (erythroid cells)) of mammary MaSCs from MPA- or sham-treated 8-week old virgin females. f, Quantification of MaSC-enriched CD24^+CD49^high population from mammary glands of MPA- or sham-treated virgin RANK^Δmam and littermate control females. […]

CC(=O)O[C@]1(C(C)=O)CC[C@H]2[C@@H]3C[C@H](C)C4=CC(=O)CC[C@]4(C)[C@H]3CC[C@@]21C [MPA, medroxyprogesterone acetate]
expansion of Lin-CD24+CD49f hi cells (RANKΔmam females): did not occur | expansion of Lin-CD24+CD49f hi cells (control females): two-fold

Source: patent US10143747B2, “Breast cancer therapeutics” (IMBA—INSTITUT FÜR MOLEKULARE BIOTECHNOLOGIE GMBH, priority 2010, dated 2018)
